Data on four molecules can be found in patent publication US8889729B2, “Compositions for treating amyloid associated diseases” (Tel Aviv University Future Technology Development L.P., priority 2004, dated 2014).

For series [1], the target named is T1, Aβ 1-42 (Homo sapiens, UniProt P05067).
T1 construct: Aβ 1-40 and Aβ 1-42, >98% pure) were purchased from Bachem; purchased Bachem (Bubendorf, Switzerland); host or cells: chemical synthesis
Nature of the series: Thioflavin T fluorescence assay of Aβ 1-42 fibrillization (Example 2). The series is classed as biochemical. The note with it: for inhibition of β-amyloid polypeptide fibril formation: 50 μM compound, 5 μM Aβ 1-42, 24 hours at 37° C.; for concentration dependence of inhibition of fibril formation: Aβ1-42, fixed incubation time of 24 hours; for IC50: Aβ1-42 fibrillization, 24 hours, calculated by the curve equation, read-out: apparent IC50. The method, then:
(§1) Aβ solutions: Synthetic lyophilized β-amyloid polypeptides (Aβ 1-40 and Aβ 1-42, >98% pure) were purchased from Bachem (Bubendorf, Switzerland). A 100 μM Aβ stock solution was prepared by dissolving Aβ1-40 or Aβ1-42 in dimethylsulfoxide (DMSO) and sonicating the resulting solution during 1 minute to avoid pre-aggregation. Aβ solutions were prepared by immediate dilution with 10 mM phosphate-buffered saline (100 mM NaCl, 0.5 mM EDTA, pH 7.4) to a final concentration of 10 μM (containing 10% (v/v) DMSO).
(§2) Indole derivatives stock solutions were prepared by dissolving an indole derivative in DMSO, so as to achieve a concentration of 20 mM and then diluting the solution with 10 mM PBS buffer (100 mM NaCl, 0.5 mM EDTA, pH 7.4) to a final concentration of 100 μM (containing 0.5% (v/v) DMSO).
(§3) Thioflavin T fluorescence assay: Fibrillization of A[…] 1-42 polypeptide was monitored using a Thioflavin T (ThT) dye binding assay. A 10 μM Aβ solution (either Aβ1-40 or Aβ1-42) was prepared as described above and was immediately mixed with the indole derivative stock solutions (100 μM), so as to achieve a final concentration of 5 μM for Aβ and various concentrations of the indole derivative. For each measurement, ThT was added to a 0.1 ml sample, to give a final concentration of 0.3 μM ThT and 0.4 μM Aβ. The samples were incubated at 37° C. Fluorescence measurements, made after addition of the ThT solution to each sample at 37° C., were carried out using a Jobin Yvon FluoroMax-3 spectrometer (excitation 450 nm, 2.5 nm slit; emission 480 nm, 5 nm slit, integration time of 1 second). Background was subtracted from each sample. Each experiment was repeated in quadruplicate.
Inhibition of amyloid formation: The level of amyloid formation was detected using the above described Thioflavin T (ThT) dye binding assay. Fluorescence (relative intensity, measured in units of percent) of the ThT bound Aβ 1-42 remaining following 24 hours at 37° C., in the absence, and in the presence of 50 μM indole or indole derivative, was measured. Each measurement was recorded immediately after the fluorescence intensity reached a maximum value. The results obtained with representative indole derivatives, each representing a mean of four independent measurements along with an associated error bar representing a standard error, are graphically presented in FIG. 4.
Concentration Dependence of Indole Derivatives inhibition activity: To examine the inhibition efficiency of the indole derivatives, the concentration dependence of inhibition of fibril formation was studied. The fibrillization of Aβ1-42, with and without an indole derivative was measured using the ThT fluorescence assay described above at a fixed incubation time of 24 hours.

The test system of series [2] is PC12 cells. The series is described as follows: Aβ1-40 cytotoxicity on PC12 cells, MTT assay. In kind it is cell-based. The following applies: for elevation of viability rate of PC12 cells compared with control: 5 μM Aβ1-40, MTT after 24 hours; for inhibitory effect on Aβ1-40 cytotoxicity: both assays (T=0 and after 7 days incubation). The method, then:
Cell culture: PC12 pheochromocytoma cell line, a cultured benign tumor of the sympathetic nervous system, was routinely grown in Dulbecco's Modified Eagle Medium (DMEM) supplemented with 8% (v/v) fetal calf serum, 8% (v/v) horse serum, 100 U/ml penicillin, 100 U/ml streptomycin, and 2 mM L-glutamine (Biological industries, Israel). The cells were maintained at 37° C. in a humidified atmosphere containing 5% CO2. Cell cytotoxicity assay: PC-12 cells (3×10^5 cells/ml) were cultured in 96-well microplates (100 μl/well) and were incubated overnight at 37° C. The wells were then washed once with serum free-DMEM, so as to exclude the effect of the serum. To each well 100 μl of 5 μM Aβ1-40 (prepared from a stock solution of 0.5 mM in 10 mM NaOH) and an indole derivative at various concentrations were added. Each determination was made in quadruplicate. Following incubation for 24 hours at 37° C., cell viability was evaluated using the MTT assay (as described in Hansen et al. (1989) J. Immunol. Methods 119, 203-210). The effect of the indole derivatives on the formation of cytotoxic amyloid assemblies was determined by measuring the toxicity of the formed Aβ on pheochromocytoma cell line cultures (PC12) in the presence and absence of the indole derivatives. […] Cell viability was determined after 24 hours using the MTT assay. Cells incubated with only 5 μM Aβ1-40 served as the control.

Series [3] concerns the target T2, Aβ1-40 (Homo sapiens, UniProt P05067).
T2 construct: Synthetic lyophilized β-amyloid polypeptides (Aβ 1-40 and Aβ 1-42, >98% pure); purchased Bachem (Bubendorf, Switzerland); host or cells: chemical synthesis
The series is described as follows: AFM structural analysis of Aβ1-40 samples from kinetic studies. The note with it: 50 μM compound, once control samples reached the polymerization phase. The method, then: Atomic force microscopy (AFM): For each experiment, a 60 μl sample of was taken for AFM measurement at three different time points correlating to the amyloidogenic kinetic curve, as detailed hereinafter. The sample was centrifuged for 1.5 minutes at 13,000 rpm and 40 μl of the supernatant was removed. The remaining 20 μl droplet of the solution was re-suspended and deposited onto freshly cleaved mica for 1.5 minutes. The substrate was washed with 160 μl of double-distilled H2O to reduce background and to eliminate salts and buffer contaminants. The mica samples were then dried at room temperature. At least four regions of the mica surface were examined to ensure that similar structures existed throughout the sample. AFM images were obtained using a Veeco NanoScope IV MultiMode AFM (Digital Instruments, Santa Barbara, USA) in tapping mode. Measurements were performed at a resonance frequency of about 321.4 kHz.
Additional structural analyses were performed using AFM measurements, performed with Aβ1-40 samples taken from the kinetic studies once the control samples reached the different fibrillogenesis phase.

Series [4] has as its target T2, Aβ1-40. Nature of the series: TEM ultrastructural analysis of Aβ1-40 samples from kinetic studies. The method, then: Transmission Electron microscopy (TEM): A 10 μl sample of the ThT fluorescence assay was placed on a 400 mesh copper grid covered by carbon-stabilized Formvar film (SPI Supplies, West Chester, Pa.). After 1.5 minutes, excess fluid was removed and the grids were negatively stained for 2 minutes with 10 μl of 2% uranyl acetate solution. Excess fluid was removed and the samples were viewed using a JEOL 1200EX electron microscope operating at 80 kV. Ultrastructural Analysis of amyloid fibril formation: The effect of the indole derivatives on the ultrastructural properties of the assembled Aβ was first evaluated by TEM measurements. Thus, TEM analysis was performed with samples of Aβ1-40 obtained from the kinetic studies described above after incubation for 14 days.

The target in series [5] is T2, Aβ1-40. Nature of the series: Kinetics of Aβ1-40 fibrillogenesis inhibition, ThT fluorescence assay. The series is classed as biochemical. The procedure: as §1, §2, §3
Kinetics Studies of Aβ1-40 Fibrillogenesis Inhibition: Aβ1-40, which has a slower fibrillogenesis rate [see, Jarrett et al. (1993) Biochemistry 32, 4693-4697] was used in these studies, in order to obtain better temporal resolution, assuming that a slower rate would allow more significant inhibition and a better understanding of the effect. 3-Hydroxyindole (denoted as 3HI), 4-hydroxyindole (denoted as 4HI) and indole-3-carbinol (denoted herein as I3C) were each added at concentrations of 5 μM, 25 μM, and 50 μM to a solution containing 5 μM of Aβ1-40 (prepared as described above) and the kinetics of Aβ1-40 fibrillogenesis inhibition was measured using the ThT fluorescence assay.

[6] abbreviates: 5 μM, 25 μM and 50 μM tested, 5 μM Aβ1-40.

T2 sequence (P05067 672-711 limits assumed): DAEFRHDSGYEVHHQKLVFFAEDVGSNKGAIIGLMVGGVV
T1 sequence (P05067 672-713 limits assumed): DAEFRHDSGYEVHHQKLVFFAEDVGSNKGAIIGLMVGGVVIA

With `Oc1cccc2[nH]ccc12` [4-hydroxyindole], in series [1], the “inhibition of β-amyloid polypeptide fibril formation” value is on record as “significantly inhibited”. The “concentration dependence of inhibition of fibril formation” value in series [1] was “dose-dependent inhibition pattern”. The half-inhibitory concentration (IC50) in series [1] is ~85 µM. Besides, the “protective effect, concentration dependence” value in series [2] (0.5 μM to 50 μM, 5 μM Aβ1-40, solution incubated 7 days) is reported as “dose-dependent”. In series [2] (5 μM Aβ1-40, solution incubated 7 days), the “minimum concentration required for significant inhibition” value is 2.5 µM. Further, the “elevation of viability rate of PC12 cells compared with control” value in series [2] (25 μM compound) and in series [2] (50 μM compound) was “about 25%” throughout. Also, the “toxic effect of Aβ1-40” value in series [2] (50 μM compound, 5 μM Aβ1-40, solution incubated 7 days) was “completely blocked”. Moreover, in series [2], the “inhibitory effect on Aβ1-40 cytotoxicity” value is “most significant inhibitory effect”. Also, the “amyloid fibril formation by AFM” value in series [3] is reported as “no fibrils”. Further, the “fibril ultrastructure by TEM” value in series [4] (5 μM or more of compound) is “no amyloid fibrils”; in series [4] (25 μM compound, 14 days incubation), “devoid of fibrils and contained only a minor amount of small fibrils”. Moreover, the “effect on nucleation phase (lag phase)” value in series [5] (5 μM compound, 5 μM Aβ1-40) was “less significant”; in series [5] (25 μM compound, 5 μM Aβ1-40), “significantly longer nucleation phase”; in series [5] (50 μM compound, 5 μM Aβ1-40), “significantly longer nucleation phase”. Also, the “slope of growth curve (polymerization phase)” value in series [5] (5 μM compound, 5 μM Aβ1-40) was “the most sharp”. The inhibition at 5 µM in series [5] (5 μM compound, 5 μM Aβ1-40, endpoint of experiment, read-out: inhibition level at final equilibrium phase) was ~60%. Further, the “inhibition level at final equilibrium phase” value in series [5] (25 μM compound, 5 μM Aβ1-40, endpoint of experiment) is recorded as “almost complete”; in series [5] (50 μM compound, 5 μM Aβ1-40, endpoint of experiment), “almost complete”. In series [5] (all the tested concentrations), the “inhibition level at final equilibrium phase, comparison among compounds” value is reported as “highest inhibition level”.
As for `Oc1c[nH]c2ccccc12` [3-hydroxyindole], in series [1], the “inhibition of β-amyloid polypeptide fibril formation” value is listed as “significantly inhibited”, the “concentration dependence of inhibition of fibril formation” value was “dose-dependent inhibition pattern” and the IC50 is ~100 µM. The “inhibitory effect on Aβ1-40 cytotoxicity” value in series [2] is listed as “no anti-cyclotoxic effect”. Besides, the “improvement of PC12 survival rate compared with control” value in series [2] (only at T=0 (solution added immediately), 5 μM Aβ1-40) is “about 25%”. Besides, the “amyloid fibril formation by AFM” value in series [3] is given as “small aggregates that interacted with the amyloid fibrils”. Moreover, the “fibril ultrastructure by TEM” value in series [4] (50 μM compound, 14 days incubation) is on record as “significant number of amorphous aggregates showing a congested form”. Besides, in series [5] (setting [6]), the “effect on nucleation phase (lag phase) compared with control” value is “no effect on the nucleation phase” and the “effect on slope of growth curve (polymerization phase)” value was “dose-dependent effect”. Further, the inhibition at 25 µM in series [5] (25 μM compound, 5 μM Aβ1-40, endpoint of experiment, read-out: inhibition level at final equilibrium phase) is ~40%. In addition, the inhibition at 50 µM in series [5] (50 μM compound, 5 μM Aβ1-40, endpoint of experiment, read-out: inhibition level at final equilibrium phase) is ~60%.
For the molecule `Oc1cc2ccccc2[nH]1` [2-hydroxyindole], the “inhibition of β-amyloid polypeptide fibril formation” value in series [1] is recorded as “significantly reduced inhibition”.
For `Oc1ccc2[nH]ccc2c1` [5-hydroxyindole], in series [1], the “inhibition of β-amyloid polypeptide fibril formation” value is “significantly reduced inhibition”.
